Test results taken from patent publication US20230286956A1 (DUKSUNG WOMEN'S UNIVERSITY INDUSTRY-ACADEMIC COOPERATION …, priority 2020, published 2023).

Experiments:
[1] = tested on: SH-SY5Y cell line; test: Inhibition of reactive oxygen species generation (CM-H2DCFDA) after MPP+ or rotenone; format: cell-based; conditions: 10 µM compound, then MPP+ (2 mM) or rotenone (2 µM) for 24 hours
Method: It is known that reactive oxygen species are generated by inhibition of mitochondria, activation of NOX enzyme, and the like when MPP+ or rotenone is administered to a cell line. Since the reactive oxygen species generated at this time react with the CM-H2DCFDA reagent to be fluorescent, the reactive oxygen species can be indirectly quantified.
Specifically, the SH-SY5Y cell line was treated with Compound 1aaa (Compound 1, 10 µM), apocynin (5 µM), or allopurinol (50 µM), and then with MPP+ (2 mM) or rotenone (2 µM) for 24 hours. The effect of each compound to inhibit the generation of reactive oxygen species is illustrated in FIGS. 2 and 3 as a relative percentage to that of the control group.

[2] = tested on: SH-SY5Y cell line; test: Cell viability (MTT assay) after MPP+ or rotenone; format: cell-based; conditions: 0.5 µM compound, then MPP+ (2 mM) or rotenone (2 µM) for 24 hours
Method: Specifically, the SH-SY5Y cell line was treated with 0.5 µM of Compound 1aaa (Compound 1), 1aca (Compound 24), lace (Compound 27), 1ahe (Compound 44) or 1aje (Compound 62) and then with MPP+ (2 mM) or rotenone (2 µM) for 24 hours. Cell viability in the case of being treated with each compound is illustrated in FIGS. 4 and 5.

[3] = tested on: alpha-synuclein; test: Alpha-synuclein aggregation (phosphorylation) inhibition, Western blotting; format: cell-based; conditions: SH-SY5Y, 10 µM compound then rotenone
Method: When rotenone is administered to nerve cells, phosphorylation, namely aggregation of alpha-synuclein occurs. Phosphorylation, aggregation of alpha-synuclein can be observed and quantified through Western blotting.
Specifically, the SH-SY5Y cell line was treated with Compound 1aaa (Compound 1, 10 µM) and then with rotenone. Thereafter, Western blotting was performed to measure the expression levels of alpha-synuclein and phosphorylated alpha-synuclein, and the results are illustrated in FIG. 6.

[4] = tested on: Nrf-2; test: Nrf-2 induction, nuclear fraction Western blotting; format: cell-based; conditions: SH-SY5Y, 10 µM compound for 24 hours
Method: When oxidative stress caused by reactive oxygen species increases in cells, the synthesis of antioxidants increases in response to this. One of the transcription factors mediating this antioxidant response is Nrf-2. As the transcription factor Nrf-2 enters the nucleus and the expression of genes related to antioxidation increases, the antioxidant capacity of cells increases.
Specifically, the SH-SY5Y cell line was exposed to Compound 1aaa (Compound 1, 10 µM) for 24 hours and then the cells were taken. Thereafter, the nuclear fraction was extracted, then Western blotting was performed to analyze the amount of Nrf-2 in the nucleus, and the results are illustrated in FIG. 7.

[5] = Single acute toxicity evaluation 1 (1000 mg/kg oral); format: in vivo, ICR mice
Method: Acute toxicity properties after single administration of the compound of the present invention were evaluated in an animal model.

[6] = tested on: substantia nigra dopaminergic neurons; test: Inhibition of dopaminergic nerve cell death in MPTP animal model of Parkinson's disease (tyrosine hydroxylase immunostaining); format: in vivo, C57B16/J mice; conditions: for survival rate of dopaminergic neurons, of that in the control group: 1 week before and after MPTP
Method: The dopaminergic neuronal cell protecting effect of the compound of the present invention was evaluated in an animal model of Parkinson’s disease. The animal model used was 7-week-old C57B16/J mice (23 to 25 g), to which MPTP (15 mg/kg) was administered 4 times at 1.5 hour intervals. For 1 to 2 days after administration, behavior was noticeably slowed and gradually recovered. In 1 week after MPTP administration, behavior was almost normalized to a level similar to that of normal mice.
In order to evaluate the efficacy of the compounds of the present invention, Compounds 1aaa (Compound 1), lace (Compound 27), 1ahe (Compound 44) and 1aje (Compound 62) were each administered at a dose of 5 mg/kg for 1 week, then MPTP (15 mg/kg x 4 times) was injected. These compounds were additionally administered for 1 week, and then dopamine innervation in the substantia nigra region was analyzed through immunostaining.
Specifically, selegiline, 1aaa, lace, 1ahe, 1aje, and apocynin were administered at a dose of 5 mg/kg for 7 days, then MPTP (15 mg/kg x 4 times) was administered to induce damage to dopaminergic neurons. After 7 days of additional administration of the compounds at the same dose, the animals were sacrificed. Immunostaining was performed using tyrosine hydroxylase antibody to measure the survival rate of substantia nigra dopaminergic neurons. After immunostaining, the number of surviving dopaminergic neurons was analyzed. The results are illustrated in FIG. 8.
In order to evaluate the efficacy of the compounds of the present invention, Compounds 1abv (Compound 22), 1abw (Compound 23), and 1ahs (Compound 52) were each intraperitoneally administered at a dose of 5 mg/kg for 1 week or orally administered at a dose of 50 mg/kg, then MPTP (15 mg/kg x 4 times) was injected. These compounds were additionally administered for 1 week, and then dopamine innervation in the substantia nigra region was analyzed through immunostaining. The results are illustrated in FIG. 9.
(§1) In order to evaluate the dopaminergic neuroprotective effect of the compounds of the present invention, Compounds 1aja (Compound 59) and 1abk (Compound 17) were each intraperitoneally administered at a dose of 5 mg/kg for 1 week, then MPTP (15 mg/kg x 4 times) was injected. These compounds were additionally administered for 1 week. After immunostaining using brain slices from each group, surviving dopaminergic neurons were photographed under a microscope and analyzed. The results are illustrated in FIG. 10.
as §1, with “1ajs” for “1aja”, “63), 1ajy (Compound 67),” for “59)”, “1aqj” for “1abk”, “85)” for “17)”, “11.” for “10.”

[7] = tested on: MPTP-administered mice; test: Behavioral activity: beam test and challenge beam test in MPTP mice; format: in vivo; conditions: intraperitoneal 5 mg/kg
Method: In order to evaluate the behavioral activation by the compounds of the present invention, Compounds lace (Compound 27), 1ahe (Compound 44), and 1abv (Compound 22) were each intraperitoneally administered at a dose of 5 mg/kg for 1 week, then MPTP (15 mg/kg x 4 times) was injected. These compounds were additionally administered for 1 week. A beam test and a challenge beam test were conducted 1 day before and 2 days after MPTP administration, respectively. The results are illustrated in FIG. 12.
In order to evaluate the behavioral activation by the compounds of the present invention, Compounds 1ajs (Compound 63), 1ajy (Compound 67), and 1abw (Compound 23) were each intraperitoneally administered at a dose of 5 mg/kg for 1 week, then MPTP (15 mg/kg x 4 times) was injected. These compounds were additionally administered for 1 week. A beam test and a challenge beam test were conducted 2 days after MPTP administration. The results are illustrated in FIG. 13.

[8] = Single acute toxicity evaluation 2 (2000 mg/kg oral); format: in vivo, ICR mice
Method: Acute toxicity properties after single administration of the compounds of the present invention were evaluated in an animal model.

[9] = Evaluation 2: intraperitoneal 5 mg/kg or oral 50 mg/kg
[10] = Evaluation 1: beam test and challenge beam test
[11] = Evaluation 2: beam test, 2 days after MPTP

CN1C(=[Se])N(c2ccccc2)C(=O)C1=Cc1ccc(O)cc1O [Compound 1aaa]
inhibition of increased generation of reactive oxygen species [1]: effectively inhibits
cell viability / inhibition of cell death [2]: significantly inhibit cell death
phosphorylation of alpha-synuclein by rotenone [3]: significantly reduced
amount of Nrf-2 in the nucleus, increase [4]: about 1.5 times
autopsy report findings [5]: no specific findings
organ weight [5]: no change in organ weight
change in body weight ([5]; day 0): 100
change in body weight ([5]; day 1): 98.06
change in body weight ([5]; day 2): 101.29
change in body weight ([5]; day 3): 104.85
change in body weight ([5]; day 5): 106.47
change in body weight ([5]; day 7): 109.39
acute toxicity phenomenon ([5]; observed for 1 week): a specific acute toxicity phenomenon was not observed

Cc1ccc(N2C(=O)C(=Cc3ccc(NCCOCCO)cc3)N(C)C2=[Se])cc1 [Compound 1abv]
survival rate of dopaminergic neurons, of that in the control group [6, 9]: 67.8%
reduction of time for mice to reach the home cage compared to MPTP administration group [7, 10]: ≥ 50%
change in body weight ([8]; day 0): 100
change in body weight ([8]; day 2): 99.0
change in body weight ([8]; day 4): 100.0
change in body weight ([8]; day 8): 102.5
change in body weight ([8]; day 10): 103.4
change in body weight ([8]; day 14): 105.0

Cc1ccc(N2C(=O)C(=Cc3ccc(NCCN4CCOCC4)cc3)N(C)C2=[Se])cc1 [Compound 1abw]
survival rate of dopaminergic neurons, of that in the control group [6, 9]: 72.3%
reduction of time for mice to reach the home cage compared to MPTP administration group [7, 11]: about 50%

CCc1ccc(N2C(=O)C(=Cc3ccc(O)cc3O)N(C)C2=[Se])cc1 [Compound 1aca]
cell viability / inhibition of cell death [2]: significantly inhibit cell death

CN1C(=[Se])N(CCc2ccccc2)C(=O)C1=Cc1cc(O)cc(O)c1 [Compound 1ahe]
cell viability / inhibition of cell death [2]: significantly inhibit cell death
change in body weight ([8]; day 0): 100
change in body weight ([8]; day 2): 98.6
change in body weight ([8]; day 4): 100.9
change in body weight ([8]; day 8): 104.2
change in body weight ([8]; day 10): 105.5
change in body weight ([8]; day 14): 106.0

CCCCCCN1C(=O)C(=Cc2cc(O)cc(O)c2)N(C)C1=[Se] [Compound 1aje]
cell viability / inhibition of cell death [2]: significantly inhibit cell death

CCCCCCN1C(=O)C(=Cc2ccc(N3CCOCC3)cc2)N(C)C1=[Se] [Compound 1ajs]
reduction of time for mice to reach the home cage compared to MPTP administration group [7, 11]: about 50%
change in body weight ([8]; day 0): 100
change in body weight ([8]; day 2): 94.3
change in body weight ([8]; day 4): 91.9
change in body weight ([8]; day 8): 96.7
change in body weight ([8]; day 10): 101.6
change in body weight ([8]; day 14): 99.4

CCCCCCN1C(=O)C(=Cc2ccc(NCCOCCF)cc2)N(C)C1=[Se] [Compound 1ajy]
survival rate of dopaminergic neurons, of that in the control group ([6]; Evaluations 3 and 4: intraperitoneal 5 mg/kg): 50.6%
reduction of time for mice to reach the home cage compared to MPTP administration group [7, 11]: about 50%

CCc1ccc(N2C(=O)C(=Cc3cc(O)cc(O)c3)N(C)C2=[Se])cc1 [lace]
cell viability / inhibition of cell death [2]: significantly inhibit cell death
survival rate of substantia nigra dopaminergic neurons, of that in the control group ([6]; Evaluation 1: 5 mg/kg for 7 days, MPTP 15 mg/kg x 4, 7 further days): 79.6%
reduction of time for mice to reach the home cage compared to MPTP administration group [7, 10]: ≥ 50%
